Reference: BindingDB's records for doi:10.1021/jm0203130 (Merck Research Laboratories, 2002)

What follows are compounds tested against Integrin alpha-IIb/beta-3 (Homo sapiens, UniProt P08514+P05106) (assay: Inhibition of integrin alphaIIb-beta3 in platelet aggregation assay).
Chain of Integrin alpha-IIb/beta-3 (P05106 27-788 limits assumed): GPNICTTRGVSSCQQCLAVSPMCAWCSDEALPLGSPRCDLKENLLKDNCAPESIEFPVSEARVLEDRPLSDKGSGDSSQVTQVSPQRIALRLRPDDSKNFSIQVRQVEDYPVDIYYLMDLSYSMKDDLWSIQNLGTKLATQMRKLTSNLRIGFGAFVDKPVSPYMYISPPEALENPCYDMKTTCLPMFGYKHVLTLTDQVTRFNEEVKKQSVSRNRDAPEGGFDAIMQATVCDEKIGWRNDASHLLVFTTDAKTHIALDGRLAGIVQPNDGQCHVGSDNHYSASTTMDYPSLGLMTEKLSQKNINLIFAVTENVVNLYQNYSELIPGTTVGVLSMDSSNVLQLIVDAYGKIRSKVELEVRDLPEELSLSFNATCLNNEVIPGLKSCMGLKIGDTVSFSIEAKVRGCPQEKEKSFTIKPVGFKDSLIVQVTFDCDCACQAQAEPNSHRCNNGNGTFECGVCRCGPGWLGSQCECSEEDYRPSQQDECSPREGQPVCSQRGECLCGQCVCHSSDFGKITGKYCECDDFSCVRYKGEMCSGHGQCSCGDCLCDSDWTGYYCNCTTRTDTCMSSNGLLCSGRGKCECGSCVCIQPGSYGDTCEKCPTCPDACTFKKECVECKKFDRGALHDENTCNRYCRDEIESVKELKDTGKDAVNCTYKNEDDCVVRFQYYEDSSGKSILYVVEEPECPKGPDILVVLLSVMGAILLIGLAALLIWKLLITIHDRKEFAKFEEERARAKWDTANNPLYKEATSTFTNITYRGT
Chain of Integrin alpha-IIb/beta-3 (P08514 32-887 limits assumed): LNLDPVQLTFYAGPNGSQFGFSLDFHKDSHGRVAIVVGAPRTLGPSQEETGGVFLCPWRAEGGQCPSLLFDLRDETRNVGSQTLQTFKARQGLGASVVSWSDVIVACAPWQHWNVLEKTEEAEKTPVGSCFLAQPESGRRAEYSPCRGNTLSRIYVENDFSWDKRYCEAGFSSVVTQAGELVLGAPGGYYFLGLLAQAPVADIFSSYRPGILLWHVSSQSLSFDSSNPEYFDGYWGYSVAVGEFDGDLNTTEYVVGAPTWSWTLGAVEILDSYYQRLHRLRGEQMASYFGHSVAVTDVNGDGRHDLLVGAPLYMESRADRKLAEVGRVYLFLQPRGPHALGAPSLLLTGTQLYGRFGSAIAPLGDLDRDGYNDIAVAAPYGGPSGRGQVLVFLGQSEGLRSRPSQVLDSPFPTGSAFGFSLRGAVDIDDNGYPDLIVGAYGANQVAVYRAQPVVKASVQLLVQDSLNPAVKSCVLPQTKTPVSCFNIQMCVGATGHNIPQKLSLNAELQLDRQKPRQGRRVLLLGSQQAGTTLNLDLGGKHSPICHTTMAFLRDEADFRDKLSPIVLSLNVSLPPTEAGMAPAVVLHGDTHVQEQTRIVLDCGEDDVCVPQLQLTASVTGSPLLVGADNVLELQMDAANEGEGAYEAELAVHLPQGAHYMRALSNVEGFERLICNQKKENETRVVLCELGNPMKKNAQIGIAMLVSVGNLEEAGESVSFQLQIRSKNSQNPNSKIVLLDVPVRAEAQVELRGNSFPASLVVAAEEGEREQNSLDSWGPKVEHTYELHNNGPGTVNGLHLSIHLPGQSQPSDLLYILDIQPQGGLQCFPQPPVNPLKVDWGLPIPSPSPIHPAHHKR
Chain of Integrin alpha-IIb/beta-3 (P08514 891-1039 limits assumed): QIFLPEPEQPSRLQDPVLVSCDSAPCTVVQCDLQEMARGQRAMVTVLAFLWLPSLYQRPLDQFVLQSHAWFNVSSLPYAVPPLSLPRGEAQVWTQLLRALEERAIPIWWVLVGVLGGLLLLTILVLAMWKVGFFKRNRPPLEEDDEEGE
O=C(O)C[C@H](NC(=O)CN1CCC(CCc2ccc3c(n2)NCCC3)C1=O)c1cccnc1 (some centres not stated) [3-(2-{2-Oxo-3-[2-(5,6,7,8-tetrahydro-[1,8]naphthyridin-2-yl)-ethyl]-pyrrolidin-1-yl}-acetylamino)-3-pyridin-3-yl-propionic acid] showed an IC50 of over 10000 nM.
Work on Nc1cccc(CCc2ccc(C(=O)NC[C@H](NS(=O)(=O)c3ccc(I)cc3)C(=O)O)cc2)n1 [3-{4-[2-(6-Amino-pyridin-2-yl)-ethyl]-benzoylamino}-2-(4-iodo-benzenesulfonylamino)-propionic acid] yielded an IC50 of 1600 nM.
O=C(O)C[C@H](NC(=O)CNC(=O)CCCc1ccc2c(n1)NCCC2)c1cccnc1 [(S)-3-Pyridin-3-yl-3-[2-(4-5,6,7,8-tetrahydro-[1,8]naphthyridin-2-yl-butyrylamino)-acetylamino]-propionic acid] was tested, and the IC50 was over 10000 nM.
O=C(O)CCNC(=O)CNC(=O)CCCc1ccc2c(n1)NCCC2 [3-[2-(4-5,6,7,8-Tetrahydro-[1,8]naphthyridin-2-yl-butyrylamino)-acetylamino]-propionic acid] was tested, and the IC50 was over 10000 nM.
CNc1cccc(CCOc2ccc3c(c2)CN(CC(F)(F)F)C(=O)[C@H](CC(=O)O)C3)n1 [[(S)-8-[2-(6-Methylamino-pyridin-2-yl)-ethoxy]-3-oxo-2-(2,2,2-trifluoro-ethyl)-2,3,4,5-tetrahydro-1H-benzo[c]azepin-4-yl]-acetic acid] was tested, and the IC50 was over 10000 nM.
Compound O=C(NC[C@H](NS(=O)(=O)c1ccccc1)C(=O)O)c1ccc(CCc2ccc3c(n2)NCCC3)cc1 [2-Benzenesulfonylamino-3-{4-[2-(5,6,7,8-tetrahydro-[1,8]naphthyridin-2-yl)-ethyl]-benzoylamino}-propionic acid] has an IC50 of 260 nM.
Compound O=C(O)C[C@H](NC(=O)CN1CCC(CCc2ccc3c(n2)NCCC3)C1=O)c1cnc2ccccc2c1 (some centres not stated) [3-(2-{2-Oxo-3-[2-(5,6,7,8-tetrahydro-[1,8]naphthyridin-2-yl)-ethyl]-pyrrolidin-1-yl}-acetylamino)-3-quinolin-3-yl-propionic acid] has an IC50 of 776 nM.
